Publication PMC12160547, “Identification of a Novel Small Molecule STING Agonist Reshaping the Immunomicroenvironment of Pancreatic Ductal Adenocarcinoma” (International Journal of Biological Sciences, 2025)

Experiments:
Panc-1 cell line = assay: CCK8 and colony assay of Panc-1 cell line; format: cell-based, human; conditions: Panc-1, 10μM D166, CCK8 and colony assay
Source text: Western Blot showing cGAS-STING pathway protein expression of Panc-1 cell line
(B) CCK8 of Panc-1 cell line when
(C-D) Representative image (C) and statistic (D) of […]

[1] = system: pancreatic tumor organoids; assay: Pancreatic tumor organoid viability (AO/PI staining, CellTiter-Glo 3D); format: cell-based, human
Source text: Pancreatic tumor organoids were derived from patients diagnosed with pancreatic ductal adenocarcinoma at Ruijin Hospital, affiliated with Shanghai Jiao Tong University School of Medicine. Inclusion criteria required a confirmed histopathological diagnosis of pancreatic ductal adenocarcinoma and the absence of prior neoadjuvant treatment. After obtaining informed consent from the patients, tumor tissues were excised during surgery and preserved in a tissue preservation solution (Absin). The tumor samples were promptly minced into small fragments in pre-chilled RPMI-1640 and digested for 20 minutes at 37°C using the Human Tumor Dissociation Kit (Miltenyi Biotec). The resulting single-cell suspension was filtered through a 100-µm mesh (Falcon) and seeded onto Matrigel (Corning). Following a 30-minute incubation at 37°C, OM12 (Omabio) complete organoid medium was added around the periphery of the Matrigel. The tissue-derived cells successfully grew in a three-dimensional format. The viability of the organoids was assessed using CellTiter-Glo® 3D Cell Viability Assay (Promega) reagents. […] Luminescence was subsequently measured using the BioTek Synergy LX multimode reader (Agilent). […] Acridine orange (AO) binds to the nuclei of all cells, emitting green fluorescence, while propidium iodide (PI) penetrates the cell membrane to stain dead cells red. […]

[2] = system: subcutaneous pancreatic tumor; assay: CD45.1 T cell or BMDM transfer into CD45.2 tumor-bearing mice; format: in vivo
[3] = Metabolite profiling in liver microsomes, 60 min incubation; format: in vitro ADME, dog; conditions: D166 incubated 60 min; selected ion chromatographic peak areas
[4] = system: pancreatic orthotopic tumor; assay: Pancreatic orthotopic tumor model; format: in vivo, C57BL/6 mice
Description: For the pancreatic orthotopic tumor model, mice were anesthetized using […] (2,2,2-tribromoethanol) (Aladdin), and the pancreas was surgically exposed. Approximately 5 × 10^5 tumor cells suspended in 50 μL PBS were injected into the pancreas. The incision was then closed, and the mice were allowed to recover under close observation. On days 9, 12, and 15, the mice received intraperitoneal injections of three different concentrations of the drug. As with the subcutaneous model, the mice were euthanized on day 25, tumors were collected, weighed, and further analyzed. Additionally, at least 10 mice from each group were randomly selected to undergo the same treatments without euthanasia, and their survival times were recorded to generate survival curves.
Pancreatic orthotopic tumor models were established using mouse pancreatic tumor cell lines (Pan02-luc and KPC-luc). Mice were intraperitoneally injected with 200 µL of D-Luciferin working solution (15 mg/mL) (Yeasen) and continuously anesthetized with isoflurane. Ten minutes after injection, the intensity and distribution of luciferase luminescence were measured using the Tanon ABL-X5 in vivo imaging system. Tumor size was monitored weekly, with consistent exposure times and intensities for imaging.
(§1) Multiplex cytokine detection was performed using Luminex cytokine bead array technology provided by WayenBio, Shanghai. In the mouse tumor model, levels of multiple cytokines were simultaneously measured and normalized to tumor weight. For the quantification of specific cytokines, such as IL-6 and IFN-β, enzyme-linked immunosorbent assay (ELISA) kits from Abclonal were used. The assays were conducted according to the manufacturer's instructions.

cGAS-STING pathway = assay: cGAS-STING pathway, IFN-β and ISG readout in pancreatic cancer organoids; format: cell-based, human
Description: Tumor tissues or cells were thoroughly lysed in RIPA buffer containing protease and phosphatase inhibitors. The lysates were then centrifuged to collect the supernatant. Proteins were separated by electrophoresis in MOPS buffer and subsequently transferred onto a PVDF membrane. After blocking, the membrane was sequentially incubated with the primary antibody, secondary antibody, and chemiluminescent substrate (ECL) for imaging.
RNA from tumor tissues or cells was extracted using the SteadyPure Universal RNA Extraction Kit (Accurate Biology) and reverse transcribed into cDNA with the Evo M-MLV Reverse Transcription Kit (Accurate Biology). Relative RNA expression levels were quantified using 2X Universal SYBR Green Fast qPCR Mix (Abclonal), and the results were recorded on the qTOWER®3 84 Real-Time PCR system.
as §1

[5] = system: pancreatic tumor organoids co-cultured with T cells or macrophages; assay: Co-culture of pancreatic tumor organoids and immune cells; format: cell-based, human
Description: T cells and monocytes were isolated from the peripheral blood of patients using the EasySep™ Human CD8+ T Cell Isolation Kit and Human Monocyte Isolation Kit ([…]). CD8+ T cells were activated with anti-CD3 (5 μg/mL) and anti-CD28 (5 μg/mL) antibodies (BioLegend), while monocytes were stimulated with 50 ng/mL of M-CSF (BioLegend) for 6 days to induce differentiation into macrophages. […] On day 5, immune cells were harvested for flow cytometry analysis. Tumor organoids were photographed, viability was assessed, and organoids were embedded for HE and IHC staining at days 0, 5, and 10 of co-culture.
Mouse tumors were digested using the Mouse Tumor Dissociation Kit (Miltenyi Biotec) according to the manufacturer's protocol. The resulting single-cell suspension was filtered through a 70-micron mesh to ensure a homogeneous cell population. Cells were stained with fluorescently labeled antibodies for flow cytometry at 4°C on ice for 30 minutes. After washing off unbound antibodies, fluorescence was detected using a Beckman CytoFlex S flow cytometer. For co-cultured immune cells, separated T cells and macrophages were similarly stained with flow cytometry antibodies. For cytokine staining, cells were pre-stimulated with the eBioscience™ Cell Stimulation Cocktail for 4 hours. For intracellular protein staining, after surface staining, cells were fixed and permeabilized using the BD Cytofix/Cytoperm™ Fixation/Permeabilization Kit, followed by staining for intracellular proteins. Flow cytometry data were analyzed using FlowJo 10 software.

h-STING = biological target: T1, h-STING (Homo sapiens, UniProt Q86WV6, G230A/R293Q/R71H); assay: THP1-Dual reporter activation fold; format: cell-based
T1 construct: THP1-Dual Fold (10 μM); endogenous in cells; host or cells: THP1-Dual
T1 sequence (Q86WV6 whole entry R71H/G230A/R293Q): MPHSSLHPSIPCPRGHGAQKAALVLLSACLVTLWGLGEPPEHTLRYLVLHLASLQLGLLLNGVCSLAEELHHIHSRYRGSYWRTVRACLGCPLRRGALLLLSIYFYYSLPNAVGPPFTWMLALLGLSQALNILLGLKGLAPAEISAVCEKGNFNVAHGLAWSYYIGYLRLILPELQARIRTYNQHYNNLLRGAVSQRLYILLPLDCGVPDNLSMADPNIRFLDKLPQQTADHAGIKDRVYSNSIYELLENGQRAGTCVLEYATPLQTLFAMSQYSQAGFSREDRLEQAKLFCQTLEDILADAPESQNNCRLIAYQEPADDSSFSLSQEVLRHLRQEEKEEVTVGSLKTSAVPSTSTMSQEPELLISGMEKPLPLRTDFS

[6] = CD45.1 bone marrow-derived macrophages transferred

Relative Peak Area Abundance (%) DLM [3]: 98.6% | THP1-Dual Fold (10 μM) (h-STING): 60.46 Fold
Structure (SMILES): [2H]C([2H])([2H])Oc1cc2cc(C(=O)CCC(=O)O)sc2cc1OC([2H])([2H])[2H] [D166]
proliferation (Panc-1 cell line): without affecting proliferation | viability of pancreatic tumor organoids ([1]; increased concentration of D166): decreased viability | inhibiting organoid viability compared with ADU-S100, MSA-2, SR-717, MK-1454 and DXMAA ([1]; organoids, 10μM): better efficacy | tumor progression ([2]; CD45.1 T cells transferred, D166 concentration increased): slowed | expression of M1 macrophage markers (CD86 and iNOS) in CD45.1 macrophages [2, 6]: increased | expression of M2 markers in CD45.1 macrophages [2, 6]: decreased | IFNG, GZMB, and PDCD1 in the CD45.1 T cells ([2]; sorted CD45.1 cells): significant upregulation | cytokine levels in the TME, including IL-6, IFN-β, and TNF-α ([4]; higher D166 doses, ELISA): elevated cytokine levels | inhibition of tumor proliferation, weekly in vivo imaging ([4]; increasing D166 concentrations, compared with DMXAA): more potent effect than DMXAA | pancreatic tumor progression ([4]; intraperitoneal injection at varying doses): significant dose-dependent inhibition | activating IFN-stimulated genes (ISGs) compared with ADU-S100, MSA-2, SR-717, MK-1454 and DXMAA (cGAS-STING pathway; organoids, 10μM): better efficacy | activation of the cGAS-STING pathway and induction of IFN-β (cGAS-STING pathway; pancreatic cancer organoids, different concentration and duration): time- and dose-dependent effect | size and viability of pancreatic cancer organoids ([5]; CTG assay, days 0, 5, 10 of co-culture): significant reduction | IL-6, IFN-β, IFN-γ, and TNF-α levels ([5]; culture medium, ELISA): significantly increased | IFNG and GZMB release from T cells ([5]; flow cytometry): marked increase | mean fluorescence intensities (MFI) of CD86 and CD80 (M1 markers) in macrophages ([5]; flow cytometry): significantly increased | mean fluorescence intensities (MFI) of CD163 and CD206 (M2 markers) in macrophages ([5]; flow cytometry): significantly decreased
